# Data taken from patent US20250295656A1, “COMBINATION OF LURBINECTEDIN AND IMMUNE CHECKPOINT INHIBITORS” (priority 2020, published 2025).
# What was measured:
# Format in all cases: cell-based, human
# [1] = system: U2OS cells stably expressing CALR-GFP; experiment: CALR-GFP granularity (surrogate marker of CALR exposure); settings: lurbinectedin 1 nM to 1 μM, MTX 1 and 3 μM, 4-32 hours, vs untreated controls
# Method: (§1) (a) Human osteosarcoma U2OS (a), human breast cancer HCC70 (b) human colon cancer HT29 cells (c) and murine methylcholantrene-induced fibrosarcoma MCA205 cells (d) were treated with lurbinectedin (Lurbi, 1 nM, 10 nM, 100 nM and 1 μM) for the indicated times. Subsequently, the cells were stained with 1 μM Hoechst 33342 and 1 μM propidium iodide and assessed for the loss of viability by automated image acquisition. Images were segmented, cellular debris was excluded and the number of cells with normal nuclear morphology was enumerated. Cells stably expressing CALR-GFP were treated as above. Following the cells were fixed with 3.7% of PFA, stained with 1 μM Hoechst 33342 and assessed by automated image acquisition. Images were segmented, cellular debris was excluded and CALR-GFP granularity (a surrogate marker of CALR exposure) was evaluated in the cytoplasmic region of cells with normal nuclear morphology. Wild type cells were treated as above and then assessed for cytoplasmic quinacrine granularity (after staining with the ATP-sensitive dye quinacrine together with Hoechst 33342) by automated image acquisition, segmentation and analysis. Cells stably expressing HMGB1-GFP were treated as above and then assessed for nuclear HMGB1-GFP fluorescence intensity. The cells were fixed and stained with Hoechst 33342 and images were acquired, segmented and analyzed. […]
# [2] = system: U2OS WT cells; experiment: Cytoplasmic quinacrine granularity (intracellular ATP, indicator of ATP release); settings: lurbinectedin 1 nM to 1 μM, MTX 1 and 3 μM, dose-dependent, decreased over time, vs untreated controls
# Method: as §1
# [3] = system: U2OS cells stably expressing HMGB1-GFP; experiment: HMGB1 release (loss of nuclear HMGB1-GFP fluorescence); settings: lurbinectedin 1 nM to 1 μM, MTX 1 and 3 μM, medium to late time points
# Method: as §1
# [4] = system: U2OS biosensor cells expressing GFP under the MX1 promoter; experiment: Type I IFN response (MX1-GFP biosensor cells treated with supernatant); settings: supernatant of treated U2OS cells after 48 hours fresh media; biosensor cells 48 hours; throughout all time points
# Method: In a systematic screening campaign, the capacity of lurbinectedin to induce immunogenic cell death in cancer cells was assessed in human osteosarcoma U2OS cells stably expressing fluorescent biosensors for the detection of CALR-relocation (as a surrogate marker for CALR surface exposure), HMGB1 release and Type I IFN responses together with U2OS WT cells stained with the ATP-sensitive dye quinacrine. […] The induction of cell death was evaluated based on changes in the nuclear morphology visualized by means of the DNA intercalating dye Hoechst 33342.
# [5] = system: eukaryotic translation initiation factor 2 alpha (eIF2α); experiment: eIF2α phosphorylation by immunofluorescence with phosphoneoepitope-specific antibody; settings: U2OS; 10, 50 or 100 nM; 6 hours
# Method: Human osteosarcoma U2OS cells were treated with 10, 50 or 100 nM lurbinectedin (Lurbi) for 6 hours. Thapsigargin (Thaps, 3 μM) was used as a positive control. The cells were fixed with 3.7% PFA and DNA was stained with 1 μM Hoechst 33342. Following the phosphorylation of the eukaryotic translation initiation factor 2 alpha (eIF2a) was assessed with phosphoneoepitope-specific antibody and was monitored by means of automated microscopy as an increase in cytoplasmic fluorescence intensity. (a,b) The level of transcription was measured in U2OS cell treated as above with Lurbi. The transcription inhibitor actinomycin D (ActD) was used as a control. The cells were fixed as above and following the colocalization of nucleolin and fibrillarin was assessed as an indicator for transcriptional activity (c,d) Scale bar equals 10 μm and bar charts depict mean values±SD of quadruplicate assessments (*p<0.01; *p<0.001, two-tailed Student's t test).
# In a systematic screening campaign, the capacity of lurbinectedin to induce immunogenic cell death in cancer cells was assessed in human osteosarcoma U2OS cells stably expressing fluorescent biosensors for the detection of CALR-relocation (as a surrogate marker for CALR surface exposure), HMGB1 release and Type I IFN responses together with U2OS WT cells stained with the ATP-sensitive dye quinacrine. […]
structure (smiles),measurement,setting,value
COc1ccc2[nH]c3c(c2c1)CCN[C@]31CS[C@@H]2c3c(OC(C)=O)c(C)c4c(c3[C@H](COC1=O)N1[C@@H]2[C@H]2c3c(cc(C)c(OC)c3O)C[C@@H]([C@@H]1O)N2C)OCO4 [lurbinectedin],CALR-granularity,[1],time- and dose-dependent increase
same,ATP signal (cytoplasmic quinacrine granularity),[2],significant decrease
same,nuclear GFP signal (HMGB1-GFP),[3],significant decrease
same,de novo GFP signal intensity (type 1 IFN response),[4],significant increase
same,phosphorylation of eIF2α,[5],dose-dependent phosphorylation
